# Assay results taken from doi:10.1101/2025.03.14.643404, “A Bivalent Molecular Glue Linking Lysine Acetyltransferases to Oncogene-induced Cell Death” (bioRxiv, 2025).
# Columns and labels:
# SUDHL5 cells [1] = experiment: Cell viability, 72 h compound treatment (PrestoBlue), SUDHL5; assay type: cell-based, human; conditions: SUDHL5, 72 h
# Experimental: Thirty thousand cells were seeded in 100 μl of media per well of a 96-well plate and treated with drug for the indicated times and doses. A resazurin-based indicator of cell health (PrestoBlue; P50200, Thermo Fisher) was added for 1.5 h at 37°C, at which point the fluorescence ratio at 560/590 nm was recorded (Tecan Spark). The background fluorescence was subtracted, and the signal was normalized to DMSO-treated cells. IC50 measurements on cell lines were calculated using at least three biological replicates (separate cell passages). Fit of dose–response curves to data and statistical analysis was performed using GraphPad PRISM using the four-parameter log(inhibitor) vs response function.
# DAUDI = experiment: Cell viability, 7 days compound treatment (Cell Titer-Glo), DAUDI; assay type: cell-based; conditions: Homo sapiens, 168 h, read-out: IC50 of antiproliferation
# Experimental: Fifteen thousand cells were seeded in 100 μl of media per well of a U-bottom 96-well plate and treated with digitally dispensed drugs (Tecan D300e) for the indicated times and doses. After 96 hours, plates were centrifuged for 750 rpm for 3 minutes, and old media was exchanged for 100 μl of fresh media. Drug treatment was then repeated at the indicated doses. 72 hours following media change, cells were transferred to 96 well flat-bottom opaque plates. Viability was measured by adding 25 μL Cell Titer-Glo reagent (Promega G7570) to each well and luminescence was measured (BMG Labtech Pherastar FS). The background luminescence was subtracted, and the signal was normalized to DMSO-treated cells. IC50 measurements on cell lines were calculated using at least three biological replicates by separate cell passages. Fit of dose–response curves to data and statistical analysis was performed using GraphPad PRISM using the four-parameter log(inhibitor) vs response function.
# SUDHL5 cells [2] = experiment: RNA-seq differential genes in SUDHL5; assay type: cell-based, human; conditions: SUDHL5, 1 nM, 30 min, 1, 2 and 4 hours; adj. P ≤ 0.05, |log2(fold change)| ≥ 0.5
# Experimental: Cells were plated at 1M/mL and harvested in TRIsure (Bioline 38033). RNA was extracted using Direct-zol RNA MicroPrep columns (Zymo R2062) treated with DNAseI. cDNA was prepared (Meridian Bioscience BIO-65054) and used for qPCR (Meridian Bioscience BIO-94050) using an AppliedBiosystems QuantStudio 6Pro. Primer sequences were the following:
# For sequencing library preparation, rRNA was depleted (NEB E7400) and total RNA prepared into paired-end libraries (NEB E7765) and indexed (NEB E7335). Library size distributions were confirmed using an Agilent Bioanalyzer and High Sensitivity DNA reagents (Agilent 5067) and concentrations determined by qPCR. […]
# Raw reads were checked for quality using fastqc (https://www.bioinformatics.babraham.ac.uk/projects/fastqc/) and trimmed from adapters using cutadapt[111] using parameters cutadapt -a […] -b […] --nextseq-trim=20 --minimum-length 1. Transcripts were quantified using kallisto[112] against the human Gencode v33 indexed transcriptome and annotations. […] Re-processed published datasets from the Sequence Read Archive (SRA) were the following: TCIP1 – SRX20228454, SRX20228455, SRX202284546, SRX20228457, SRX20228458, SRX20228459, SRX20228448, SRX20228449, SRX20228450; CDK-TCIP1 – SRX22117221, SRX22117222, SRX22117223, SRX22117224, SRX22117225, SRX22117226, SRX22117227, SRX22117228, SRX22117229).
# SUDHL5 cells [3] = experiment: Annexin V staining of SUDHL5; assay type: cell-based, human
# Experimental: 25,000 cells were plated in 200 μL of media in 96 well U-bottom plates and treated with compound. […] Centrifugation and washing was repeated once more. Cells were then resuspended in 50 μL cold binding buffer (10 mM HEPES pH 7.4, 140 mM NaCl, 2.5 mM CaCl2) and 2.5 μL FITC-Annexin-V (Biolegend 640922). A no-stain control was also included to draw gates. The plate was allowed to incubate for 15 minutes at room temperature, at which point 100 μL of 2.5% FBS in PBS was added to each well. The plate was gently agitated through shaking, and samples were analyzed by flow cytometry on a BD Accuri. At least 50k events were collected per sample.
structure (smiles),measurement,setting,value
CNC(=O)COc1cc2cc(Nc3nc(N4CCC(C(=O)N5CCN(CCC(=O)N6CCC(n7nc(N8CCCc9cc(-c%10cnn(C)c%10)c(C(F)F)cc98)c8c7CCN(C(=O)NC)C8)CC6)CC5)CC4)ncc3Cl)cc(OC)c2n(C)c1=O [TCIP3],IC50,"SUDHL5 cells [1]; Homo sapiens, SU-DHL-5, read-out: IC50 cell viability / antiproliferation",0.8 nM
same,IC50 cell viability / antiproliferation,SUDHL5 cells [1],sub-nanomolar
same,times more cytotoxic than either NEG1 or NEG2,SUDHL5 cells [1],"over 1,000 times"
same,times more potent than A-485,SUDHL5 cells [1],238 times
same,times more potent than dCBP-1,SUDHL5 cells [1],12 times
same,IC50,DAUDI,6.9 nM
same,number of genes decreased,SUDHL5 cells [2],"2,126"
same,number of genes induced,SUDHL5 cells [2],"1,510"
same,"Annexin V-positive cells, times higher than DMSO","SUDHL5 cells [3]; SUDHL5, 10 nM, 72 hours",2.9 times
same,"Annexin V-positive cells, times higher than NEG1","SUDHL5 cells [3]; SUDHL5, 10 nM, 72 hours",2.3 times
same,"Annexin V-positive cells, times higher than NEG2","SUDHL5 cells [3]; SUDHL5, 10 nM, 72 hours",2.5 times
same,cells stained positive for Annexin V,"SUDHL5 cells [3]; SUDHL5, 10 nM, 72 hours",82%
same,induction of apoptosis,"SUDHL5 cells [3]; SUDHL5, 24, 48, 72 hours",significant increases in Annexin V-positive cells began after 48 hours
